According to patent US20130224239A1, “ALCOHOLIC EXTRACT OF FUNGI OF GENUS […] AND USE THEREOF” (KING SAUD UNIVERSITY, priority 2011, published 2013):
Converted amounts (≈) assume the structure as drawn. Read-outs that look alike come from different tables or passages of the source. Marks after values point to notes of the source that are not given here.

Legend:
[1] = test system: Candida albicans (RCMB 5002); assay: Antimicrobial screening, disc diffusion; format: cell-based; conditions: for zone of inhibition at 1000 µg/mL: RCMB5002, Standard Antibiotics (1 mg/ml), read-out: Diameter of inhibition zone; for Diameter of inhibition zone: compounds isolated from Cunninghamella elegans
Protocol: (§1) The alcoholic extracts obtained were used for testing their antimicrobial activity. Each extract (0.5 g) was dissolved in 10 ml water. Same concentrations for the successive extracts (using diethyl ether, chloroform, ethyl acetate and n-butanol) were also prepared.
(§2) The representatives of Gram negative bacteria, namely Salmonella typhimuium (RCMB 0104), Escherichia coli (RCMB 0103), Pseudomonas aeruginosa (RCMB 0102) and Gram positive bacteria, namely Bacillus subtilis (RCMB 0107), Staphylococcus aureus (RCMB 0106), Streptococcus pyogenes (RCMB 0109), unicellular fungi, namely Candida albicans (RCMB 5002) and filamentous fungi, namely Aspergillus fumigatus (RCMB 2003) and Penicllium expansum (RCMB 1006) were used as test organisms (RCMB: The Regional Center for Mycology and Biotechnology, Al-azhar University Nasser City, Cairo, Egypt).
(§3) For antimicrobial screening the well known disc diffusion and agar well diffusion methods were used, together with the determination of minimum inhibitory concentration (MIC), see Duguid et al., Microbial Infections, The English Language Book Society, Churchill Livingston, Edingburgh, London, 1978; vol. 1, page 110.
(§4) Disc diffusion method: The agar disc diffusion method is employed for the determination of antimicrobial activities of the extracts of the investigated fungal species. Sterilized paper discs (Whatman No. 1) ([…]) were separately soaked in the extracts and transferred onto the surface of growth media seeded with the test organism. After incubation period, following suitable conditions for the test organism, the diameter of the inhibition zone around the discs was measured in millimeters. The obtained result was the mean of three experiments.
(§5) Each fungal species was grown on malt extract media at 28±2° C. for 14 days. The metabolites of the fungal species were screened for antimicrobial activity. The inhibition zones around each disc were measured, in millimeter, and recorded (Tables 1).

[2] = test system: Aspergillus fumigatus (RCMB 2003); assay: Antimicrobial screening, disc diffusion; format: cell-based; conditions: for zone of inhibition at 1000 µg/mL: RCMB2003, Standard Antibiotics (1 mg/ml), read-out: Diameter of inhibition zone; for Diameter of inhibition zone: compounds isolated from Cunninghamella elegans
Protocol: as §1, §2, §3, §4, §5

[3] = test system: Penicllium expansum (RCMB 1006); assay: Antimicrobial screening, disc diffusion; format: cell-based; conditions: Penicillium expansum; for zone of inhibition at 1000 µg/mL: RCMB1006, Standard Antibiotics (1 mg/ml), read-out: Diameter of inhibition zone; for Diameter of inhibition zone: compounds isolated from Cunninghamella elegans
Protocol: as §1, §2, §3, §4, §5

[4] = test system: Escherichia coli (RCMB 0103); assay: Antimicrobial screening, disc diffusion; format: cell-based
Protocol: as §1, §2, §3, §4, §5

[5] = test system: Streptococcus pyogenes (RCMB 0109); assay: Antimicrobial screening, disc diffusion; format: cell-based
Protocol: as §1, §2, §3, §4, §5

[6] = test system: Bacillus subtilis (RCMB 0107); assay: Antimicrobial screening, disc diffusion; format: cell-based
Protocol: as §1, §2, §3, §4, §5

[7] = test system: Staphylococcus aureus (RCMB 0106); assay: Antimicrobial screening, disc diffusion; format: cell-based
Protocol: as §1, §2, §3, §4, §5

[8] = test system: Pseudomonas aeruginosa (RCMB 0102); assay: Antimicrobial screening, disc diffusion; format: cell-based; conditions: Pseudomonas aeurginosa
Protocol: as §1, §2, §3, §4, §5

[9] = test system: Salmonella typhimuium (RCMB 0104); assay: Antimicrobial screening, disc diffusion; format: cell-based; conditions: Salmonella typhimuim
Protocol: as §1, §2, §3
as §4, with “millimeters.” for “millimeters. The obtained result was the mean of three experiments.”
Each fungal species was grown on malt extract media at 28±2° C. for 14 days. The metabolites of the fungal species were screened for antimicrobial activity.

[10] = test system: Staphylococcus aureus; assay: Minimum inhibitory concentration, agar well diffusion; format: cell-based; conditions: for MIC: read-out: Minimum inhibitory concentration
From the text: as §3
Agar well diffusion method: On the other hand, the agar well diffusion method was employed for determination of the minimum inhibitory concentration (MIC). The test organisms were separately seeded in the agar medium. The wells (10 mm in diameter) were cut from the agar and […] (different concentrations) was transferred into them. After incubation period, following suitable conditions for the test organism, the diameter of the inhibition zone around the discs was measured in millimeters. The obtained result was the mean of three experiments.
The minimum inhibitory concentration (MIC) of Cunninghamella blakesleeana, C. elegans, C. homothallica and successive extracts and isolated compounds of Cunninghamella elegans against Staphylococcus aureus was determined.
Minimum inhibitory concentration (MIC): The lowest concentration of an antimicrobial agent that will inhibit a visible growth of a microorganism after overnight incubation.

[11] = test system: Staphylococcus aureus infected wounds; assay: Wound healing activity, excision wound model; format: in vivo, guinea pig
Protocol: Swiss albino mice (20-25 g), male Sprague-Dawley rats (160-180 g) and male guinea pigs (240-260 g) were employed in the study. The animals were left for 2 weeks at room conditions to ensure stabilization before use. They were maintained on standard pellet diet and water ad libitum throughout the experiment. • a) Acute Toxicity: Mice were divided into groups of 6 and the methanol extracts of C. blakesleeana, C. elegans and C. homothallica were administered orally in increasing doses. […] Rats of the 1^St group were given a vehicle (1% v/v Tween 80) in a dose of 5 ml kg^−1 and left as normal control. Rats of the 2nd, 3rd, and 4th groups were administered the methanol extracts of C. blakesleeana, C. elegans and C. homothallica, respectively in a dose of 200 mg kg^−1. All medications were administered orally via the aid of an oral tube for 35 days. […] At the end of the experimental period, blood samples (2 mL) were collected from the retro-orbital venous plexus of each rat (under ether anesthesia) into clean centrifuge tubes. The blood samples were allowed to clot at room temperature for 30 min after which they were centrifuged at 10,000 rpm for 5 minutes. Sera were separate with Pasteur pipette into sterile serum sample tubes and used for biochemical assay.
Measurement of Liver and Kidney Function Markers: • Liver functions were evaluated by measuring the serum activity of aspartate aminotransferase (AST) and alanine aminotransferase (ALT) following the method of Reitman and Frankel, Am. J. Clin. Path., 28: 55-60, alkaline phosphatase enzyme (ALP) by the method of Babson et al., Clinical Chemistry, 12: 482-490. Serum levels of total bilirubin, total proteins and albumin were also assayed. Globulin was obtained from the difference between total proteins and albumin. Serum concentrations of uric acid, urea and creatinine were determined colormetrically as measures of kidney functions. All measurements were carried out by protocols well known in the art. • c) Wound Healing Activity: The excision wound model was used to monitor wound contraction and wound closure time. Four groups of male guinea pigs were used in the experiment with 6 animals in each group. At the beginning of the experiment, the dorsal skin of each guinea pig was shaved with an electric clipper. After 24 hours, all animals were anesthetized by diethyl ether and the shaved areas were sterilized with 70% alcoholic solution. A predetermined dorsal area (15 mm×20 mm) was inflicted by cutting away a full thickness of skin (2 mm depth) using toothed forceps, scalpel and pointed scissors. A fresh surgical blade was used for the perpendicular cut in each animal and tension of skin was kept constant during the procedure. Local infection with Staphylococcus aureus was introduced into wounds using 0.5 mL of 10^8 bacteria mL^−1 inoculums. The wounds were left undressed to the open environment and the animals were kept individually in separate cages. • Wounds treatment: Wounds were air exposed and treatment began 24 h after injury. Wounds of the control animals were treated with the vehicle (1% v/v Tween 80). Guinea pigs of the second and third group were treated with total alcohol extract of C. elegans and the isolated compound (adenosine) in a concentration of 5 mg mL^−1, while animals of the fourth group were medicated with latamoxef (Moxalactam)® in a concentration of 30 μg mL^−1 (Reference group). The vehicle, extract, and reference drug were applied topically on the wound surface once a day for 18 days. […] of each tested material was applied slowly, using an insulin syringe, from the central point extending outside the wound area to ensure inclusion of the edges. Swabs were taken on day 5 to confirm the presence of the expected organisms in the pus. • Assessment of wound healing: The wound areas were measured while the animals were under anaesthesia on days 0, 4, 7, 10, 14, and 18 post-wounding by tracing the wound areas onto a transparent tracing paper. […]

[12] = compounds isolated from Cunninghamella elegans
[13] = topical 30 μg mL^−1 once a day, n = 6
[14] = topical 30 μg mL^−1 once a day, n = 6, listed as latamoxef

Clc1ccccc1C(c1ccccc1)(c1ccccc1)n1ccnc1 [Clotrimazole, reference compound]
zone of inhibition at 1000 µg/mL [1]: 18 ± 0.1 mm
zone of inhibition at 1000 µg/mL [2]: 26 ± 0.1 mm
zone of inhibition at 1000 µg/mL [3]: 23 ± 0.3 mm

CCCCCCCCCCCCCCCC(=O)O [Compound 1, palmitic acid]
Diameter of inhibition zone [1]: 00.0 mm
Diameter of inhibition zone [2]: 00.0 mm
Diameter of inhibition zone [4, 12]: 00.0 mm
Diameter of inhibition zone [5, 12]: 00.0 mm
Diameter of inhibition zone [3]: 00.0 mm
Diameter of inhibition zone [6, 12]: 00.0 mm
Diameter of inhibition zone [7, 12]: 13.0 mm
Diameter of inhibition zone [8, 12]: 00.0 mm
Diameter of inhibition zone [9, 12]: 00.0 mm

CCCCCCCC/C=C\CCCCCCCC(=O)O [Compound 2, oleic acid]
Diameter of inhibition zone [1]: 00.0 mm
Diameter of inhibition zone [2]: 00.0 mm
Diameter of inhibition zone [4, 12]: 00.0 mm
Diameter of inhibition zone [5, 12]: 00.0 mm
Diameter of inhibition zone [3]: 00.0 mm
Diameter of inhibition zone [6, 12]: 00.0 mm
Diameter of inhibition zone [7, 12]: 11.0 ± 0.3 mm
Diameter of inhibition zone [8, 12]: 00.0 mm
Diameter of inhibition zone [9, 12]: 00.0 mm

CCCCCCCCCCCCCCCCCC(=O)O [Compound 3, stearic acid]
Diameter of inhibition zone [1]: 00.0 mm
Diameter of inhibition zone [2]: 00.0 mm
Diameter of inhibition zone [4, 12]: 00.0 mm
Diameter of inhibition zone [5, 12]: 00.0 mm
Diameter of inhibition zone [3]: 00.0 mm
Diameter of inhibition zone [6, 12]: 00.0 mm
Diameter of inhibition zone [7, 12]: 15.0 ± 0.5 mm
Diameter of inhibition zone [8, 12]: 00.0 mm
Diameter of inhibition zone [9, 12]: 00.0 mm

O=C(O)c1cc(O)c(O)c(O)c1 [Compound 7, 3,4,5-trihydroxy-benzoic acid]
Diameter of inhibition zone [1]: 00.0 mm
Diameter of inhibition zone [2]: 00.0 mm
Diameter of inhibition zone [4, 12]: 00.0 mm
Diameter of inhibition zone [5, 12]: 00.0 mm
Diameter of inhibition zone [3]: 00.0 mm
Diameter of inhibition zone [6, 12]: 00.0 mm
Diameter of inhibition zone [7, 12]: 05.0 ± 0.5 mm
Diameter of inhibition zone [8, 12]: 00.0 mm
MIC ([10]; against Staphylococcus aureus): 130 µg/mL (≈ 764 µM)

CCC(C)n1ncn(-c2ccc(N3CCN(c4ccc(OCC5COC(Cn6cncn6)(c6ccc(Cl)cc6Cl)O5)cc4)CC3)cc2)c1=O (stereo not shown) [Itraconazole, reference compound]
zone of inhibition at 1000 µg/mL [1]: 26 ± 0.2 mm
zone of inhibition at 1000 µg/mL [2]: 28 ± 0.5 mm
zone of inhibition at 1000 µg/mL [3]: 27 ± 0.1 mm

CO[C@@]1(NC(=O)C(C(=O)O)c2ccc(O)cc2)C(=O)N2C(C(=O)O)=C(CSc3nnnn3C)CO[C@@H]21 (stereo partly shown) [Latamoxef, latamoxef, reference compound]
wound contraction ([11]; Day 14, topical 30 μg mL^−1): 100%
Wound area on day 0 ([11]; day 0, topical 30 μg mL^−1 once a day, n = 6): 300 ± 0.0 mm^2
Wound area on day 4 ([11]; day 4, topical 30 μg mL^−1 once a day, n = 6): 219.4 ± 9.37** mm^2
Wound area on day 7 ([11]; day 7, topical 30 μg mL^−1 once a day, n = 6): 146.4 ± 5.60*** mm^2
Wound area on day 10 [11, 13]: 42.6 ± 1.85*** mm^2
Wound area on day 10 [11, 14]: 42.6±1.85 mm^2
Wound area on day 14 [11, 13]: 0.0 ± 0.0 mm^2
Wound area on day 14 [11, 14]: 0.0 mm^2

CC1(C)S[C@@H]2[C@H](NC(=O)Cc3ccccc3)C(=O)N2[C@H]1C(=O)O [Penicillin G, reference compound]
Diameter of inhibition zone ([4]; Standard Antibiotics (1 mg/ml)): 33.5 ± 0.8 mm
Diameter of inhibition zone ([5]; Standard Antibiotics (1 mg/ml)): 31.4 ± 0.1 mm
Diameter of inhibition zone ([6]; Standard Antibiotics (1 mg/ml)): 32.5 ± 0.5 mm
Diameter of inhibition zone ([7]; Standard Antibiotics (1 mg/ml)): 29.5 ± 0.8 mm
Diameter of inhibition zone ([8]; Standard Antibiotics (1 mg/ml)): 28.3 ± 0.1 mm
Diameter of inhibition zone ([9]; Standard Antibiotics (1 mg/ml)): 34.3 ± 0.4 mm

[H]/N=C(/N)N[C@H]1[C@H](O)[C@@H](O)[C@H](O[C@@H]2O[C@@H](C)[C@](O)(C=O)[C@H]2O[C@@H]2O[C@@H](CO)[C@H](O)[C@@H](O)[C@@H]2NC)[C@@H](N/C(N)=N\[H])[C@@H]1O [Streptomycin, reference compound]
Diameter of inhibition zone ([4]; Standard Antibiotics (1 mg/ml)): 25.0 ± 0.3 mm
Diameter of inhibition zone ([5]; Standard Antibiotics (1 mg/ml)): 24.0 ± 0.4 mm
Diameter of inhibition zone ([6]; Standard Antibiotics (1 mg/ml)): 29.0 ± 0.4 mm
Diameter of inhibition zone ([7]; Standard Antibiotics (1 mg/ml)): 25.0 ± 0.2 mm
Diameter of inhibition zone ([8]; Standard Antibiotics (1 mg/ml)): 24.0 ± 0.1 mm
Diameter of inhibition zone ([9]; Standard Antibiotics (1 mg/ml)): 28.0 ± 0.3 mm

CN[C@H](CC(C)C)C(=O)N[C@H]1C(=O)N[C@@H](CC(N)=O)C(=O)N[C@H]2C(=O)N[C@H]3C(=O)N[C@H](C(=O)N[C@H](C(=O)O)c4cc(O)cc(O)c4-c4cc3ccc4O)[C@H](O)c3ccc(c(Cl)c3)Oc3cc2cc(c3O[C@@H]2O[C@H](CO)[C@@H](O)[C@H](O)[C@H]2O[C@H]2C[C@](C)(N)[C@H](O)[C@H](C)O2)Oc2ccc(cc2Cl)[C@H]1O [Vancomycin, reference compound]
MIC ([10]; Staphylococcus aureus): 0.75 µg/mL (≈ 0.518 µM)

Gentamicin [reference compound]
Minimum inhibitory concentration ([10]; against Staphylococcus aureus): 0.35 µg/mL
